Marks after values point to notes of the source that are not given here.
Assays:
[1] = system: pentylenetetrazole-induced epilepsy mice model; test: Pentylenetetrazole-induced epilepsy experimental model; settings: for clonic seizures / latency / mortality rate / tonic seizures: n=6
Procedure: In order to deduce the possible anticonvulsant mechanism of α-Asaronol 3,4,5-trimethoxycinnamate, in this study, pentylenetetrazole, 3-mercaptopropionic acid and other chemical test modes were used to initially evaluate the anticonvulsant activity of the test compound (i.g: 160 mg/kg, 80 mg/kg, 40 mg/kg).
(3) Pentylenetetrazole-induced Epilepsy Experimental Model
Procedure: mice were randomly divided into five groups: treatment group (i.g: 160 mg/kg, 80 mg/kg, 40 mg/kg), control group and blank group (n=6). The treatment group was intragastrically administrated with the test compound, the control group with the positive drug carbamazepine, and the blank group with physiological saline. After 30 minutes, the mice were intragastrically administrated with pentylenetetrazole at 200 mg/kg. Each test animal was placed in one cage and observed for 60 minutes. The latency of clonic seizures, the number of clonic seizures, the number of tonic seizures, and the number of deaths for mice of each group were recorded.

KM mice = test: Maximal Electroshock Seizure (MES) test; assay type: in vivo; settings: for MES: 6 mice
Description: (§1) The antiepileptic pharmacological tests were carried out using the anti-epileptic drug development program implemented by the National Institutes of Health (NIH), comprising the Maximal Electroshock Seizure (MES) for evaluating antiepileptic activity and the Rotarodtest for examining neurotoxicity. In order to further study and evaluate the pharmacological mechanism of anticonvulsant effect in different chemical models, two classic chemical model pentarotetrazole and 3-mercaptopropionic acid were used.
(1) Maximal Electroshock Seizure (MES)
Procedure: KM mice were subjected to the following preliminary screening before they were tested, and only qualified mice were screened for the next experiment. The screening method was performed as follows: the day before the test, the test mice electrically stimulated at 15V, 60 Hz, wherein two electrodes were clamped in each ear of the mice and powered for 0.45 seconds. Mice with hind limb rigidity were included in the experimental mice and used for later experiments. The Maximal Electroshock Seizure tolerance test was performed as follows: mice were administered intragastrically with the test compound after it is dissolved, and then at 0.25 h, 0.5 h, 1 h, 2 h, 3 h and 4 h after the administration, stimulated with the electrodes in their ears at 15V, 60 Hz electric stimulation for 0.45 s, respectively. […] According to the dosing regimen, concentration gradient was designed and the mice were administered with the test compound at different concentration gradient and observed for the anticonvulsant activity. Finally, the half effective dose of the test compound at the maximum anticonvulsant activity was calculated according to the following equation: ED50=1 g^−1[Xm−i(ΣP−0.5)] SX50=i(ΣP−ΣP^2/n−1)^1/2 • 95% confidence limit for ED50=1 g^−1(1 gED50±1.96 SX50) • wherein the meanings of the symbols in the equation are as follows: • Xm common logarithm for the maximum dose; • i common logarithm for the ratio between doses • p positive rate for each group, expressed in decimal places • n the number of animals per group • SX50 standard error of 1 gED50

[2] = system: 3-mercaptopropionic acid-induced epilepsy mice model; test: 3-mercaptopropionic acid-induced epilepsy experimental model; assay type: in vivo; settings: for clonic seizures / latency / mortality rate / tonic seizures: n=6
Excerpt: (4) 3-mercaptopropionic Acid-induced Epilepsy Experimental Model

mice [3] = test: Neurotoxicity test (Rotarod test); assay type: in vivo
Description: as §1
(§2) Procedure: experimental mice were place on a rotating bar fatigue device rotating at 16 revolutions per minute at 0.25 h, 0.5 h, 1 h, and 2 h after intragastric administration, respectively. […] According to the dosing regimen, concentration gradient was designed and the mice was administered with the test compound at different concentration gradient and observed for the anticonvulsant activity. Half toxic dose (TD50) was calculated according to the following equation: TD50=1 g^−1[Xm−i(ΣP−0.5)] SX50=i(ΣP−σP^2/n−1)^1/2 • 95% confidence limit for TD50=1 g^−1(1 gTD50±1.96 SX50) • wherein the meanings of the symbols in the equation are as follows: • Xm common logarithm for the maximum dose; • i common logarithm for the ratio between doses • p positive rate for each group, expressed in decimal places • n the number of animals per group • SX50 standard error of 1 gTD50

[4] = Neurotoxicity test (Rotarod test); assay type: in vivo; settings: KM, mouse, in vivo, po
Description: as §1, §2

mice [5] = settings: Wang S. S. 1995; cited from earlier work

Structure (SMILES): COc1cc(OC)c(OC)cc1/C=C/COC(=O)/C=C/c1cc(OC)c(OC)c(OC)c1
- time of clonic seizure compared with the physiological saline group ([1]; 160 mg/kg, 80 mg/kg, 40 mg/kg, p<0.05): significantly prolong
- effect on inhibiting the tonic seizure and reducing the mortality compared with carbamazepine ([1]; at the same dose): comparable effect
- clonic seizures ([1]; i.g. 40 mg/kg): 100%
- latency ([1]; i.g. 40 mg/kg): 205.6 ± 40.5 s
- mortality rate ([1]; i.g. 40 mg/kg): 100%
- tonic seizures ([1]; i.g. 40 mg/kg): 50%
- clonic seizures ([1]; i.g. 80 mg/kg): 83.3%
- latency ([1]; i.g. 80 mg/kg): 253.6 ± 58.2 s
- mortality rate ([1]; i.g. 80 mg/kg): 66.7%
- tonic seizures ([1]; i.g. 80 mg/kg): 33.3%
- latency ([1]; i.g. 160 mg/kg, 30 min before pentylenetetrazole 200 mg/kg): 370.0 ± 84.8 s
- clonic seizures ([1]; i.g. 160 mg/kg): 50%
- mortality rate ([1]; i.g. 160 mg/kg): 16.7%
- tonic seizures ([1]; i.g. 160 mg/kg): 33.3%
- ED50 (KM mice; Mus musculus, po, MES, mice, i.g., 95% confidence limit 63.1-128.8, read-out: ED50 (half effective dose)): 90.3 mg/kg
- MES (KM mice; i.g. 40 mg/kg, 0.25 h): 4/6
- MES (KM mice; i.g. 40 mg/kg, 0.5 h): 5/6
- MES (KM mice; i.g. 40 mg/kg, 1 h): 6/6
- MES (KM mice; i.g. 40 mg/kg, 2 h): 6/6
- MES (KM mice; i.g. 40 mg/kg, 3 h): 6/6
- MES (KM mice; i.g. 40 mg/kg, 4 h): 6/6
- MES (KM mice; i.g. 56 mg/kg, 0.25 h): 3/6
- MES (KM mice; i.g. 56 mg/kg, 0.5 h): 4/6
- MES (KM mice; i.g. 56 mg/kg, 1 h): 4/6
- MES (KM mice; i.g. 56 mg/kg, 2 h): 5/6
- MES (KM mice; i.g. 56 mg/kg, 3 h): 5/6
- MES (KM mice; i.g. 56 mg/kg, 4 h): 5/6
- MES (KM mice; i.g. 78 mg/kg, 0.25 h): 3/6
- MES (KM mice; i.g. 78 mg/kg, 0.5 h): 3/6
- MES (KM mice; i.g. 78 mg/kg, 1 h): 3/6
- MES (KM mice; i.g. 78 mg/kg, 2 h): 3/6
- MES (KM mice; i.g. 78 mg/kg, 3 h): 4/6
- MES (KM mice; i.g. 78 mg/kg, 4 h): 4/6
- MES (KM mice; i.g. 110 mg/kg, 0.25 h): 2/6
- MES (KM mice; i.g. 110 mg/kg, 0.5 h): 1/6
- MES (KM mice; i.g. 110 mg/kg, 1 h): 1/6
- MES (KM mice; i.g. 110 mg/kg, 2 h): 2/6
- MES (KM mice; i.g. 110 mg/kg, 3 h): 3/6
- MES (KM mice; i.g. 110 mg/kg, 4 h): 3/6
- MES (KM mice; i.g. 154 mg/kg, 0.25 h after administration): 1/6^c
- MES (KM mice; i.g. 154 mg/kg, 0.5 h): 0
- MES (KM mice; i.g. 154 mg/kg, 1 h): 1/6
- MES (KM mice; i.g. 154 mg/kg, 2 h): 1/6
- MES (KM mice; i.g. 154 mg/kg, 3 h): 3/6
- MES (KM mice; i.g. 154 mg/kg, 4 h): 3/6
- anticonvulsant activity in the Maximal Electroshock Seizure test (in words) (KM mice; mice, i.g.): good anticonvulsant activity
- effect on inhibiting the tonic seizure and reducing the mortality compared with carbamazepine ([2]; 160 mg/kg, 80 mg/kg): comparable effect
- time of clonic seizure compared with the physiological saline group ([2]; 160 mg/kg, 80 mg/kg, p<0.05): significantly prolong
- clonic seizures ([2]; i.g. 40 mg/kg): 100%
- latency ([2]; i.g. 40 mg/kg): 185.3 ± 39.8 s
- mortality rate ([2]; i.g. 40 mg/kg): 50%
- tonic seizures ([2]; i.g. 40 mg/kg): 50%
- clonic seizures ([2]; i.g. 80 mg/kg): 83.3%
- latency ([2]; i.g. 80 mg/kg): 192.8 ± 85.1 s
- mortality rate ([2]; i.g. 80 mg/kg): 33.3%
- tonic seizures ([2]; i.g. 80 mg/kg): 33.3%
- latency ([2]; i.g. 160 mg/kg, 30 min before 3-mercaptopropionic acid 60 mg/kg): 241.5 ± 80.4 s
- clonic seizures ([2]; i.g. 160 mg/kg): 50%
- mortality rate ([2]; i.g. 160 mg/kg): 33.3%
- tonic seizures ([2]; i.g. 160 mg/kg): 33.3%
- 3-mercaptopropionic acid-induced seizures (in words) ([2]; mouse, in vivo): moderately reduce
- PI, protection index (TD50/ED50) (mice [3]; mice, i.g., rotarod TD50 / MES ED50): 10.4
- toxicity (in words) (mice [3]; mouse, in vivo): did not show significant toxicity
- TD50 [4]: 940 mg/kg

Structure (SMILES): COC(=O)C=Cc1cc(OC)c(OC)c(OC)c1 [M-TMCA, methyl 3,4,5-trimethoxycinnamic acid]
- time of pentobarbital sodium-induced sleep in mice (mice [5]): prolong

Structure (SMILES): COc1ccc(C=CC(=O)O)cc1 [PMCA, p-methoxycinnamic acid]
- time of pentobarbital sodium-induced sleep in mice (mice [5]): prolong

Structure (SMILES): COc1cc(C=CC(=O)O)cc(OC)c1OC [TMCA, 3,4,5-trimethoxycinnamic acid]
- time of pentobarbital sodium-induced sleep in mice (mice [5]): prolong

Structure (SMILES): NC(=O)N1c2ccccc2C=Cc2ccccc21 [carbamazepine, reference compound]
- clonic seizures ([1]; i.g. 83 mg/kg): 100%
- latency ([1]; i.g. 83 mg/kg): 476.8 ± 100.5 s
- mortality rate ([1]; i.g. 83 mg/kg): 50%
- tonic seizures ([1]; i.g. 83 mg/kg): 33.3%
- clonic seizures ([2]; i.g. 83 mg/kg): 100%
- latency ([2]; i.g. 83 mg/kg): 277.2 ± 93.1 s
- mortality rate ([2]; i.g. 83 mg/kg): 33.3%
- tonic seizures ([2]; i.g. 83 mg/kg): 33.3%

— US10131619B2, “α-Asary-laldehyde ester, preparation method therefor, and application thereof” (NORTHWEST UNIVERSITY, priority 2014, dated 2018)
